Measurements reported in PubChem BioAssay (NCI).
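GI50 is the concentration that inhibits growth by half. TGI marks complete inhibition of growth.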

Legend:
Test in all cases: DTP human tumour cell line panel, 384-well format
[1] = tested on: 786-0 renal
[2] = tested on: A498 renal
[3] = tested on: A549 NSCLC
[4] = tested on: ACHN renal
[5] = tested on: BT-549 breast
[6] = tested on: CAKI-1 renal
[7] = tested on: CCRF-CEM leukemia
[8] = tested on: COLO 205 colon
[9] = tested on: DU-145 prostate
[10] = tested on: EKVX NSCLC
[11] = tested on: HCC-2998 colon
[12] = tested on: HCT-116 colon
[13] = tested on: HCT-15 colon
[14] = tested on: HL-60(TB) leukemia
[15] = tested on: HOP-62 NSCLC
[16] = tested on: HOP-92 NSCLC
[17] = tested on: HS 578T breast
[18] = tested on: HT29 colon
[19] = tested on: IGROV1 ovarian
[20] = tested on: K-562 leukemia
[21] = tested on: KM12 colon
[22] = tested on: LOX IMVI melanoma
[23] = tested on: M14 melanoma
[24] = tested on: MALME-3M melanoma
[25] = tested on: MCF7 breast
[26] = tested on: MDA-MB-231 breast
[27] = tested on: MDA-MB-435 melanoma
[28] = tested on: MDA-MB-468 breast
[29] = tested on: MOLT-4 leukemia
[30] = tested on: NCI-H226 lung
[31] = tested on: NCI-H23 lung
[32] = tested on: NCI-H322M lung
[33] = tested on: NCI-H460 NSCLC
[34] = tested on: NCI-H522 lung
[35] = tested on: NCI/ADR-RES ovarian
[36] = tested on: OVCAR-3 ovarian
[37] = tested on: OVCAR-4 ovarian
[38] = tested on: OVCAR-5 ovarian
[39] = tested on: OVCAR-8 ovarian
[40] = tested on: PC-3 prostate
[41] = tested on: RPMI-8226 leukemia
[42] = tested on: RXF 393 renal
[43] = tested on: SF-268 CNS
[44] = tested on: SF-295 CNS
[45] = tested on: SF-539 CNS
[46] = tested on: SK-MEL-2 melanoma
[47] = tested on: SK-MEL-28 melanoma
[48] = tested on: SK-MEL-5 melanoma
[49] = tested on: SK-OV-3 ovarian
[50] = tested on: SN12C renal
[51] = tested on: SNB-19 CNS
[52] = tested on: SNB-75 CNS
[53] = tested on: SW-620 colon
[54] = tested on: T-47D breast
[55] = tested on: TK-10 renal
[56] = tested on: U251 glioblastoma
[57] = tested on: UACC-257 melanoma
[58] = tested on: UACC-62 melanoma
[59] = tested on: UO-31 renal

Nc1ncnc2c1c(-c1cccc(OCc3ccccc3)c1)cn2C1CC(CN2CCCC2)C1 (stereo not drawn)
GI50 [1]: 1690 nM
TGI [1]: 3080 nM
GI50 [2]: 1730 nM
TGI [2]: 3300 nM
GI50 [3]: 1670 nM
TGI [3]: 3410 nM
GI50 [4]: 2040 nM
TGI [4]: 4450 nM
GI50 [5]: 1550 nM
TGI [5]: 2980 nM
GI50 [6]: 1660 nM
TGI [6]: 3220 nM
GI50 [7]: 1850 nM
TGI [7]: 3260 nM
GI50 [8]: 442 nM
TGI [8]: 1640 nM
GI50 [9]: 3020 nM
TGI [9]: 11900 nM
GI50 [10]: 1360 nM
TGI [10]: 3740 nM
GI50 [11]: 1290 nM
TGI [11]: 2630 nM
GI50 [12]: 1560 nM
TGI [12]: 2990 nM
GI50 [13]: 1570 nM
TGI [13]: 3280 nM
GI50 [14]: 324 nM
TGI [14]: 1050 nM
GI50 [15]: 1870 nM
TGI [15]: 3490 nM
GI50 [16]: 1460 nM
TGI [16]: 2820 nM
GI50 [17]: 1580 nM
TGI [17]: 2950 nM
GI50 [18]: 769 nM
TGI [18]: 2060 nM
GI50 [19]: 3460 nM
TGI [19]: 12300 nM
GI50 [20]: 1560 nM
TGI [20]: 2950 nM
GI50 [21]: 1910 nM
TGI [21]: 4160 nM
GI50 [22]: 1670 nM
TGI [22]: 3050 nM
GI50 [23]: 1400 nM
TGI [23]: 2720 nM
GI50 [24]: 1250 nM
TGI [24]: 2520 nM
GI50 [25]: 353 nM
TGI [25]: 1690 nM
GI50 [26]: 2050 nM
TGI [26]: 4560 nM
GI50 [27]: 1490 nM
TGI [27]: 2840 nM
GI50 [28]: 1520 nM
TGI [28]: 2970 nM
GI50 [29]: 1780 nM
TGI [29]: 3170 nM
GI50 [30]: 1470 nM
TGI [30]: 4310 nM
GI50 [31]: 1380 nM
TGI [31]: 3560 nM
GI50 [32]: 1860 nM
TGI [32]: 4940 nM
GI50 [33]: 1320 nM
TGI [33]: 2750 nM
GI50 [34]: 1900 nM
TGI [34]: 3500 nM
GI50 [35]: 2290 nM
TGI [35]: 6640 nM
GI50 [36]: 1740 nM
TGI [36]: 3430 nM
GI50 [37]: 2030 nM
TGI [37]: 5180 nM
GI50 [38]: 1520 nM
TGI [38]: 3810 nM
GI50 [39]: 1790 nM
TGI [39]: 3510 nM
GI50 [40]: 1780 nM
TGI [40]: 3510 nM
GI50 [41]: 1720 nM
TGI [41]: 3110 nM
GI50 [42]: 1480 nM
TGI [42]: 2830 nM
GI50 [43]: 1760 nM
TGI [43]: 3190 nM
GI50 [44]: 1760 nM
TGI [44]: 3220 nM
GI50 [45]: 1800 nM
TGI [45]: 3210 nM
GI50 [46]: 1060 nM
TGI [46]: 2260 nM
GI50 [47]: 1570 nM
TGI [47]: 2920 nM
GI50 [48]: 1200 nM
TGI [48]: 2450 nM
GI50 [49]: 1740 nM
TGI [49]: 3290 nM
GI50 [50]: 1770 nM
TGI [50]: 3420 nM
GI50 [51]: 3000 nM
TGI [51]: 8690 nM
GI50 [52]: 1900 nM
TGI [52]: 3340 nM
GI50 [53]: 1410 nM
TGI [53]: 2960 nM
GI50 [54]: 1540 nM
TGI [54]: 3040 nM
GI50 [55]: 1600 nM
TGI [55]: 3170 nM
GI50 [56]: 1890 nM
TGI [56]: 3380 nM
GI50 [57]: 1480 nM
TGI [57]: 2810 nM
GI50 [58]: 1690 nM
TGI [58]: 3070 nM
GI50 [59]: 1520 nM
TGI [59]: 2880 nM
